Reference: patent US20190184364A1, “FRAGRANCE COMPOSITIONS CONTAINING MICROCAPSULES” (INTERNATIONAL FLAVORS & FRAGRANCES INC., priority 2016, published 2019)
≈ marks a conversion by molar mass, not a printed value.

What was measured:
[1] = tested on: insect bites; details: DEET at 100%; cited from earlier work
[2] = cited from earlier work; for δD: Hansen dispersion value; for δH: Hansen h-bonding value; for δP: Hansen polar value
[3] = Water solubility of core solvents; assay type: physicochemical

| solubility [3] | SMILES | hours of protection against insect bites [1] | δD [2] | δH [2] | δP [2] |
| --- | --- | --- | --- | --- | --- |
| – | CCN(CC)C(=O)c1cccc(C)c1 [DEET, N,N-Diethyl-meta-toluamide] | up to 12 hours | – | – | – |
| < 0.0001 mg/mL | CCCCCCCCCCCCCC(=O)OC(C)C [isopropyl myristate] | – | 16 | 2.7 | 2.1 |
| 21.5 mg/mL (≈ 98.6 mM) | CC(=O)OCC(COC(C)=O)OC(C)=O [triacetin] | – | 16.4 | 9.6 | 5.7 |
